Reference: patent publication US20240199676A1, “ANTIVIRAL COMPOUNDS AND METHODS OF MAKING AND USING THE SAME” (Gilead Sciences, Inc., priority 2022, published 2024)

Legend:
[1] = GI S9 stability (Ex. Z), cyno intestinal S9; assay type: in vitro ADME; conditions: cynomolgus monkey, pooled intestinal S9 fractions; cyno intestinal S9, 1.0 mg/mL protein, 2 μM substrate, pH 7.4; read-out: GIS9 Cyno T½ (per Ex. Z)
Procedure: Example Z: GI S9 stability data:
Stock solutions of test compounds in dimethyl sulfoxide (DMSO) having a final concentration of 10 mM were prepared and used in all experiments. Sekisui XenoTech (Kansas City, KS) provided pooled intestinal S9 fractions. All other chemicals were purchased from Sigma-Aldrich (St. Louis, MO) or VWR (West Chester, PA). Internal Standard/Quench (IS/Q) used to stop reactions was 100 nM labetalol in (by volume) methanol (10%) and acetonitrile (90%).
Stability in Intestinal S9 Fractions: Duplicate aliquots of test compound or positive control substrate were added to S9 stock diluted with phosphate buffered saline (137 mM NaCl, 2.7 mM KCl, 10 mM phosphate buffer), pH 7.4, to obtain a protein concentration of 1.0 mg/mL. The metabolic reactions were initiated by the addition of the substrates to the S9 reaction mixture to a final concentration of 2 μM. At 0, 10, 20, 30, 60 and 120 min, 25 μL aliquots of the reaction mixture were transferred to plates containing 225 μl of IS/Q solution. After quenching, the plates were centrifuged at 3000×g for 30 minutes. 150 μL aliquots of each supernatant were dried down then reconstituted with 300 μL water. Aliquots (10 μL) of the prepared samples were analyzed on a Thermo Q-Exactive mass spectrometer as described below.
Liquid Chromatography—Mass Spectrometry: Quantification of test compounds and control substrate was performed by analyte/internal standard peak area ratio (PAR) values measured on a Thermo Q-Exactive mass spectrometer coupled to a Dionex UltiMate 3000 HPLC with a Leap Technologies HTC PAL autosampler. The column used for analysis was a Waters Acquity BEH C18 (1.7 μm particle size, 2.1×50 mm). Mobile phase A consisted of 0.1% (v/v) formic acid in water. Mobile phase B consisted of 0.1% (v/v) formic acid in acetonitrile. Elution of analytes was achieved by a series of linear gradients varying the proportions of A and B. The mass spectrometer was calibrated on a weekly basis and mass tolerance of 5 ppm was used.
Metabolic stabilities in S9 fractions were determined by measuring the rates of disappearance of test compound and positive control substrate.
Data (% of substrate remaining) were plotted on a semi-log scale and fitted using an exponential decline model:
Where Ct—% of substrate remaining at time=t; C0—% of substrate remaining at time=0; t—time; T½—half-life The Half-life (T½) is determined by the following equation: […]
Assuming a first-order reaction, the slope (k) is extrapolated from the aforementioned plotted data.

[2] = tested on: Respiratory syncytial virus recombinant with luciferase (RSV-Luc5) in NHBE cells; assay: NHBE RSV-Luc5 384-well Assay (EC50 RSVFLUC NHBE-384, Ex. U); assay type: cell-based; conditions: human respiratory syncytial virus, 72 h, read-out: EC50 RSV FLUC NHBE 384 (per Ex. U)
Description: Example U. NHBE RSV-Luc5 384-well Assay (EC50 RSVFLUC NHBE-384)
Normal Human Bronchial Epithelial (NHBE) cells were purchased from Lonza (Walkersville, MD Cat #CC2540) and maintained in BEGM Bronchial Epithelial Cell Growth Medium BulletKit (Lonza CC-3170).
Cells were thawed, expanded, and were used for experiments at passage 2. Respiratory syncytial virus recombinant with luciferase (RSV-Luc5) (≥1×10^7 Infectious Units/ml (IU/ml) determined by TCID50) was purchased from Microbiologics (Saint Cloud, MN). Viral replication was determined in NHBE cells in the following manner.
Compounds are prepared in 100% DMSO in 384-well polypropylene plates (Greiner, Monroe, NC, Cat #784201) with 8 compounds per plate in grouped replicates of 4 at 10 serially diluted concentrations (1:3). The serially diluted compounds were transferred to low dead volume Echo plates (Labcyte, Sunnyvale, CA, Cat #LP-0200).
The test compounds were spotted to 384-well assay plates (Greiner, Monroe, NC, Cat#781091) at 200 nL per well. NHBE cells were harvested and suspended in BEGM Bronchial Epithelial Cell Growth Medium BulletKit and seeded to the pre-spotted assay plates at 5,000 cells per well in 30 μL. RSV-Luc5 virus was diluted in BEGM Bronchial Epithelial Cell Growth Medium BulletKit at 500,000 Infectious Units (IU) per mL and 10 μL per well was added to the assay plates containing cells and compounds, for an MOI of 1. The assay plates were incubated for 3 days at 37° C. and 5% CO2. At the end of incubation, One-Glo reagent (Promega, Madison, WI, Cat #E6120) was prepared. The assay plates and One-Glo reagent were equilibrated to room temperature for at least 15 minutes. 40 μL per well of One-Glo reagent was added and the plates were incubated at room temperature for 15 minutes before reading the luminescence signal on an EnVision multimode plate reader (Perkin Elmer, Waltham, MA). Remdesivir was used as positive control and DMSO was used as negative control. Values were normalized to the positive and negative controls (as 0% and 100% replication, respectively) and data was fitted using non-linear regression analysis by Gilead's dose response tool. The EC50 value for each compound was defined as the concentration reducing the viral replication by 50%.

Compound | half-life at 2 μM [1] | EC50 [2]
CC(C)C(=O)OC[C@@]1(C#N)O[C@@H](c2ccc3c(N)ncnn23)[C@H](O)[C@@H]1O [Compound 1, ((2R,3S,4R,5S)-5-(4-aminopyrrolo[2,1-f][1,2,4]triazin-7-yl)-2-cyano-3,4-dihydroxytetrahydrofuran-2-yl)methyl isobutyrate] | 25 min | 22.1 µM
N#C[C@]1(COC(=O)c2ccccc2)O[C@@H](c2ccc3c(N)ncnn23)[C@H](O)[C@@H]1O [Compound 2, ((2R,3S,4R,5S)-5-(4-aminopyrrolo[2,1-f][1,2,4]triazin-7-yl)-2-cyano-3,4-dihydroxytetrahydrofuran-2-yl)methyl benzoate] | 32 min | 7.47 µM
CC(C)CC(=O)OC[C@@]1(C#N)O[C@@H](c2ccc3c(N)ncnn23)[C@H](O)[C@@H]1O [Compound 3, ((2R,3S,4R,5S)-5-(4-aminopyrrolo[2,1-f][1,2,4]triazin-7-yl)-2-cyano-3,4-dihydroxytetrahydrofuran-2-yl)methyl 3-methylbutanoate] | 17 min | 8.07 µM
CC(=O)OC[C@@]1(C#N)O[C@@H](c2ccc3c(N)ncnn23)[C@H](O)[C@@H]1O [Compound 4, ((2R,3S,4R,5S)-5-(4-aminopyrrolo[2,1-f][1,2,4]triazin-7-yl)-2-cyano-3,4-dihydroxytetrahydrofuran-2-yl)methyl acetate] | 9 min | 11 µM
CCC(=O)OC[C@@]1(C#N)O[C@@H](c2ccc3c(N)ncnn23)[C@H](O)[C@@H]1O [Compound 5, ((2R,3S,4R,5S)-5-(4-aminopyrrolo[2,1-f][1,2,4]triazin-7-yl)-2-cyano-3,4-dihydroxytetrahydrofuran-2-yl)methyl propionate] | 6 min | 8.89 µM
CCCC(=O)OC[C@@]1(C#N)O[C@@H](c2ccc3c(N)ncnn23)[C@H](O)[C@@H]1O [Compound 6, ((2R,3S,4R,5S)-5-(4-aminopyrrolo[2,1-f][1,2,4]triazin-7-yl)-2-cyano-3,4-dihydroxytetrahydrofuran-2-yl)methyl butyrate] | 8 min | 7.71 µM
N#C[C@]1(COC(=O)C2CC2)O[C@@H](c2ccc3c(N)ncnn23)[C@H](O)[C@@H]1O [Compound 7, ((2R,3S,4R,5S)-5-(4-aminopyrrolo[2,1-f][1,2,4]triazin-7-yl)-2-cyano-3,4-dihydroxytetrahydrofuran-2-yl)methyl cyclopropanecarboxylate] | 100 min | 9.65 µM
N#C[C@]1(COC(=O)C2CCC2)O[C@@H](c2ccc3c(N)ncnn23)[C@H](O)[C@@H]1O [Compound 8, ((2R,3S,4R,5S)-5-(4-aminopyrrolo[2,1-f][1,2,4]triazin-7-yl)-2-cyano-3,4-dihydroxytetrahydrofuran-2-yl)methyl cyclobutanecarboxylate] | 4 min | 8.79 µM
CCC(CC)C(=O)OC[C@@]1(C#N)O[C@@H](c2ccc3c(N)ncnn23)[C@H](O)[C@@H]1O [Compound 9, ((2R,3S,4R,5S)-5-(4-aminopyrrolo[2,1-f][1,2,4]triazin-7-yl)-2-cyano-3,4-dihydroxytetrahydrofuran-2-yl)methyl 2-ethylbutanoate] | 57 min | 8.69 µM
CC(C)(C)C(=O)OC[C@@]1(C#N)O[C@@H](c2ccc3c(N)ncnn23)[C@H](O)[C@@H]1O [Compound 10, ((2R,3S,4R,5S)-5-(4-aminopyrrolo[2,1-f][1,2,4]triazin-7-yl)-2-cyano-3,4-dihydroxytetrahydrofuran-2-yl)methyl pivalate] | 123 min | 8.08 µM
CCC(CC)C(=O)Nc1ncnn2c([C@@H]3O[C@](C#N)(COC(=O)C(CC)CC)[C@@H](O)[C@H]3O)ccc12 [Compound 11, ((2R,3S,4R,5S)-2-cyano-5-(4-(2-ethylbutanamido)pyrrolo[2,1-f][1,2,4]triazin-7-yl)-3,4-dihydroxytetrahydrofuran-2-yl)methyl 2-ethylbutanoate] | 19 min | 25.2 µM
CC(C)[C@H](N)C(=O)OC[C@@]1(C#N)O[C@@H](c2ccc3c(N)ncnn23)[C@H](O)[C@@H]1O [Compound 12, ((2R,3S,4R,5S)-5-(4-aminopyrrolo[2,1-f][1,2,4]triazin-7-yl)-2-cyano-3,4-dihydroxytetrahydrofuran-2-yl)methyl L-valinate] | 2 min | 11.5 µM
CC(C)(C)CC(=O)OC[C@@]1(C#N)O[C@@H](c2ccc3c(N)ncnn23)[C@H](O)[C@@H]1O [Compound 13, ((2R,3S,4R,5S)-5-(4-aminopyrrolo[2,1-f][1,2,4]triazin-7-yl)-2-cyano-3,4-dihydroxytetrahydrofuran-2-yl)methyl 3,3-dimethylbutanoate] | 408 min | 10.9 µM
Cc1ccc(C(=O)OC[C@@]2(C#N)O[C@@H](c3ccc4c(N)ncnn34)[C@H](O)[C@@H]2O)cc1 [Compound 14, ((2R,3S,4R,5S)-5-(4-aminopyrrolo[2,1-f][1,2,4]triazin-7-yl)-2-cyano-3,4-dihydroxytetrahydrofuran-2-yl)methyl 4-methylbenzoate] | 22 min | 8.82 µM
CC1(C(=O)OC[C@@]2(C#N)O[C@@H](c3ccc4c(N)ncnn34)[C@H](O)[C@@H]2O)CC1 [Compound 15, ((2R,3S,4R,5S)-5-(4-aminopyrrolo[2,1-f][1,2,4]triazin-7-yl)-2-cyano-3,4-dihydroxytetrahydrofuran-2-yl)methyl 1-methylcyclopropane-1-carboxylate] | 123 min | 8.8 µM
CC1(C)CC(C(=O)OC[C@@]2(C#N)O[C@@H](c3ccc4c(N)ncnn34)[C@H](O)[C@@H]2O)C1 [Compound 17, ((2R,3S,4R,5S)-5-(4-aminopyrrolo[2,1-f][1,2,4]triazin-7-yl)-2-cyano-3,4-dihydroxytetrahydrofuran-2-yl)methyl 3,3-dimethylcyclobutane-1-carboxylate] | – | 8.09 µM
N#C[C@]1(COC(=O)C2CCCCC2)O[C@@H](c2ccc3c(N)ncnn23)[C@H](O)[C@@H]1O [Compound 19, ((2R,3S,4R,5S)-5-(4-aminopyrrolo[2,1-f][1,2,4]triazin-7-yl)-2-cyano-3,4-dihydroxytetrahydrofuran-2-yl)methyl cyclohexanecarboxylate] | 2 min | –
CC(C)C(=O)OC[C@@]1(C#N)O[C@@H](c2ccc3c(N)ncnn23)[C@H](OC(=O)C(C)C)[C@@H]1OC(=O)C(C)C [Compound 20, (2R,3S,4S,5S)-5-(4-aminopyrrolo[2,1-f][1,2,4]triazin-7-yl)-2-cyano-2-((isobutyryloxy)methyl)tetrahydrofuran-3,4-diyl bis(2-methylpropanoate)] | – | 31.7 µM
